Measurements published in US20220125959A1, “PROSTATE-SPECIFIC MEMBRANE ANTIGEN (PSMA) INHIBITORS AS DIAGNOSTIC AND RADIONUCLIDE THERAPEUTIC AGENTS” (FIVE ELEVEN PHARMA INC., priority 2019, published 2022).

Key:
[1] = test system: PSMA-negative cell line, PC3; assay: In vitro cell uptake, PC3 cells; type: cell-based; settings: PC3 (do not express PSMA), 60 min
In short: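 Cells grown 48 h, washed, then incubated at 37 °C with [^177Lu]-labelled ligand; nonspecific binding defined with 10 μM 2-PMPA. After washing and lysis in 0.5 M NaOH, activity counted in a gamma counter; uptake expressed as % ID, triplicates.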

[2] = test system: PSMA-positive cell line, PIP PC3; assay: In vitro cell uptake, PIP PC3 cells; type: cell-based
In short: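 Cellular uptake of [^177Lu]-labelled ligands was measured in PIP PC3 cells seeded at 5×10^5 cells/well in 12-well plates and grown 48 h in 1 mL medium. After two PBS washes and addition of 900 μL fresh medium, triplicate wells were incubated at 37° C. Cells were then washed twice, lysed in 1 mL of 0.5 M NaOH, and gamma-counted, with uptake expressed as % ID.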

[3] = test system: PC3-PIP (PSMA positive) and PC-3 tumors (PSMA negative); assay: Biodistribution of 177Lu labeled compounds 42 and 51 in tumor bearing nude mice; type: in vivo, CD-1 male nude mice
Description: For iv injection 150 μL of labeled solution was diluted with saline to 3.75mL. Mice were injected with 150 μL of formulated dose. Injected radioactivity was 100 μCi and PSMA ligand amount was constant at 0.72 nmole/mouse.
Similarly, the tissue distribution of [^177Lu]42 and [^177Lu]51 was evaluated in mice bearing PIP PC3 (PSMA positive) and PC3 (PSMA negative) tumors on the left and right shoulder, respectively, over a period of 24 h (Table 4). […] The tumor specific uptake for [^177Lu]51 was higher than that observed for [^177Lu]42. […] Results of this study lend support for using these dual-targeted ^177Lu labeled agents for treatment of metastatic prostate cancer.

[4] = Stability of injected doses after formulation; type: physicochemical; settings: at 24 hr after formulation
In short: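 Ligand labeled with ^68Ga (90° C, 10 min) or ^177Lu (95° C, 1 hour) in NaOAc; radiochemical purity checked by radio-HPLC, with stability of formulated doses followed to 2 hr (^68Ga) or 48 hr (^177Lu). Mice received iv 100 μCi, 0.72 nmole ligand/mouse.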

[5] = PIP PC3, 60 min, with PSMA inhibitor (2-PMPA, 2 uM)

O=C([O-])CN1CCN(C(CCC(=O)NCC(=O)NC(Cc2ccc(OCC(=O)NC(Cc3ccccc3)C(=O)NCCCCC(NC(=O)NC(CCC(=O)O)C(=O)O)C(=O)O)cc2)C(=O)O)C(=O)[O-])CCN(CC(=O)[O-])CCN(C(CCC(=O)NCC(=O)NC(P(=O)(O)O)P(=O)(O)O)C(=O)O)CC1.[177Lu+3] (stereo not shown) [[^177Lu]42]
In vitro cell uptake [1]: 0.8 % ID per 5 × 10^5 cells
In vitro cell uptake ([2]; PIP PC3, 5 min): 3.3 % ID per 5 × 10^5 cells
In vitro cell uptake ([2]; PIP PC3, 15 min): 5.5 % ID per 5 × 10^5 cells
In vitro cell uptake ([2]; PIP PC3, 30 min): 7.6 % ID per 5 × 10^5 cells
In vitro cell uptake ([2]; PIP PC3, 60 min): 8.6 % ID per 5 × 10^5 cells
In vitro cell uptake [2, 5]: 0.9 % ID per 5 × 10^5 cells
In vitro cell uptake ([2]; PIP PC3, 120 min): 9.8 % ID per 5 × 10^5 cells
Biodistribution: Blood ([3]; 1 hr): 0.18 ± 0.05 % dose/g
Biodistribution: Bone ([3]; 1 hr): 5.82 ± 1.59 % dose/g
Biodistribution: Heart ([3]; 1 hr): 0.13 ± 0.03 % dose/g
Biodistribution: Kidney ([3]; 1 hr): 27.52 ± 7.47 % dose/g
Biodistribution: Lg Intestine ([3]; 1 hr): 0.11 ± 0.03 % dose/g
Biodistribution: Liver ([3]; 1 hr): 0.12 ± 0.02 % dose/g
Biodistribution: Lung ([3]; 1 hr): 0.38 ± 0.11 % dose/g
Biodistribution: Muscle ([3]; 1 hr): 0.08 ± 0.02 % dose/g
Biodistribution: PC3 tumor ([3]; 1 hr): 0.41 ± 0.10 % dose/g
Biodistribution: PIP PC3 tumor ([3]; 1 hr): 11.29 ± 2.44 % dose/g
Biodistribution: Pancreas ([3]; 1 hr): 0.20 ± 0.09 % dose/g
Biodistribution: Skin ([3]; 1 hr): 0.22 ± 0.05 % dose/g
Biodistribution: Sm Intestine ([3]; 1 hr): 0.24 ± 0.15 % dose/g
Biodistribution: Spleen ([3]; 1 hr): 0.53 ± 0.17 % dose/g
Biodistribution: Stomach ([3]; 1 hr): 0.17 ± 0.07 % dose/g
Biodistribution: Blood ([3]; 4 hr): 0.02 ± 0.01 % dose/g
Biodistribution: Bone ([3]; 4 hr): 5.62 ± 1.18 % dose/g
Biodistribution: Heart ([3]; 4 hr): 0.06 ± 0.02 % dose/g
Biodistribution: Kidney ([3]; 4 hr): 11.81 ± 5.81 % dose/g
Biodistribution: Lg Intestine ([3]; 4 hr): 1.03 ± 1.01 % dose/g
Biodistribution: Liver ([3]; 4 hr): 0.08 ± 0.02 % dose/g
Biodistribution: Lung ([3]; 4 hr): 0.13 ± 0.04 % dose/g
Biodistribution: Muscle ([3]; 4 hr): 0.05 ± 0.04 % dose/g
Biodistribution: PC3 tumor ([3]; 4 hr): 0.28 ± 0.11 % dose/g
Biodistribution: PIP PC3 tumor ([3]; 4 hr): 7.62 ± 1.60 % dose/g
Biodistribution: Pancreas ([3]; 4 hr): 0.05 ± 0.02 % dose/g
Biodistribution: Skin ([3]; 4 hr): 0.10 ± 0.03 % dose/g
Biodistribution: Sm Intestine ([3]; 4 hr): 0.94 ± 1.12 % dose/g
Biodistribution: Spleen ([3]; 4 hr): 0.18 ± 0.06 % dose/g
Biodistribution: Stomach ([3]; 4 hr): 0.49 ± 0.60 % dose/g
Biodistribution: Blood ([3]; 24 hr): 0.00 ± 0.00 % dose/g
Biodistribution: Bone ([3]; 24 hr): 4.55 ± 0.26 % dose/g
Biodistribution: Heart ([3]; 24 hr): 0.03 ± 0.01 % dose/g
Biodistribution: Kidney ([3]; 24 hr): 2.62 ± 0.19 % dose/g
Biodistribution: Lg Intestine ([3]; 24 hr): 0.37 ± 0.20 % dose/g
Biodistribution: Liver ([3]; 24 hr): 0.06 ± 0.00 % dose/g
Biodistribution: Lung ([3]; 24 hr): 0.04 ± 0.01 % dose/g
Biodistribution: Muscle ([3]; 24 hr): 0.03 ± 0.02 % dose/g
Biodistribution: PC3 tumor ([3]; 24 hr): 0.11 ± 0.04 % dose/g
Biodistribution: PIP PC3 tumor ([3]; 24 hr): 4.72 ± 1.68 % dose/g
Biodistribution: Pancreas ([3]; 24 hr): 0.01 ± 0.00 % dose/g
Biodistribution: Skin ([3]; 24 hr): 0.05 ± 0.01 % dose/g
Biodistribution: Sm Intestine ([3]; 24 hr): 0.06 ± 0.05 % dose/g
Biodistribution: Spleen ([3]; 24 hr): 0.04 ± 0.01 % dose/g
Biodistribution: Stomach ([3]; 24 hr): 0.14 ± 0.10 % dose/g
PC3 (PSMA negative) tumor uptake ([3]; mouse, in vivo): very low uptake
PIP PC3 (PSMA positive) tumor uptake ([3]; mouse, in vivo): excellent
Uptake in bone ([3]; mouse, in vivo): high specific uptake in bone
Stability of injected doses [4]: stable

O=C(O)CC[C@H](NC(=O)N[C@@H](CCCCNC(=O)[C@H](Cc1ccccc1)NC(=O)COc1ccc(C[C@H](NC(=O)CNC(=O)CCC(C(=O)O)N2CCN(CC(=O)O)CCN(CC(=O)O)CCN(CC(=O)O)CC2)C(=O)NCC(=O)NC(P(=O)(O)O)P(=O)(O)O)cc1)C(=O)O)C(=O)O.[177Lu] (stereo partly shown) [[^177Lu]51]
In vitro cell uptake [1]: 0.7 % ID per 5 × 10^5 cells
Uptakes compared with reference ligand [177Lu]PSMA-617 ([2]; PIP PC3): much higher uptakes
In vitro cell uptake ([2]; PIP PC3, 5 min): 4.4 % ID per 5 × 10^5 cells
In vitro cell uptake ([2]; PIP PC3, 15 min): 8.4 % ID per 5 × 10^5 cells
In vitro cell uptake ([2]; PIP PC3, 30 min): 13.4 % ID per 5 × 10^5 cells
In vitro cell uptake ([2]; PIP PC3, 60 min): 17.4 % ID per 5 × 10^5 cells
In vitro cell uptake [2, 5]: 1.1 % ID per 5 × 10^5 cells
In vitro cell uptake ([2]; PIP PC3, 120 min): 19.3 % ID per 5 × 10^5 cells
Biodistribution: Blood ([3]; 1 hr): 0.18 ± 0.04 % dose/g
Biodistribution: Bone ([3]; 1 hr): 6.52 ± 0.34 % dose/g
Biodistribution: Heart ([3]; 1 hr): 0.20 ± 0.06 % dose/g
Biodistribution: Kidney ([3]; 1 hr): 90.59 ± 18.47 % dose/g
Biodistribution: Lg Intestine ([3]; 1 hr): 0.10 ± 0.04 % dose/g
Biodistribution: Liver ([3]; 1 hr): 0.23 ± 0.03 % dose/g
Biodistribution: Lung ([3]; 1 hr): 0.62 ± 0.09 % dose/g
Biodistribution: Muscle ([3]; 1 hr): 0.11 ± 0.03 % dose/g
Biodistribution: PC3 tumor ([3]; 1 hr): 0.53 ± 0.12 % dose/g
Biodistribution: PIP PC3 tumor ([3]; 1 hr): 14.70 ± 1.29 % dose/g
Biodistribution: Pancreas ([3]; 1 hr): 0.37 ± 0.11 % dose/g
Biodistribution: Skin ([3]; 1 hr): 0.35 ± 0.05 % dose/g
Biodistribution: Sm Intestine ([3]; 1 hr): 0.16 ± 0.03 % dose/g
Biodistribution: Spleen ([3]; 1 hr): 1.33 ± 0.41 % dose/g
Biodistribution: Stomach ([3]; 1 hr): 0.11 ± 0.03 % dose/g
Biodistribution: Blood ([3]; 4 hr): 0.03 ± 0.01 % dose/g
Biodistribution: Bone ([3]; 4 hr): 6.74 ± 0.71 % dose/g
Biodistribution: Heart ([3]; 4 hr): 0.05 ± 0.00 % dose/g
Biodistribution: Kidney ([3]; 4 hr): 35.24 ± 5.28 % dose/g
Biodistribution: Lg Intestine ([3]; 4 hr): 0.22 ± 0.15 % dose/g
Biodistribution: Liver ([3]; 4 hr): 0.16 ± 0.00 % dose/g
Biodistribution: Lung ([3]; 4 hr): 0.20 ± 0.06 % dose/g
Biodistribution: Muscle ([3]; 4 hr): 0.03 ± 0.00 % dose/g
Biodistribution: PC3 tumor ([3]; 4 hr): 0.20 ± 0.03 % dose/g
Biodistribution: PIP PC3 tumor ([3]; 4 hr): 15.12 ± 1.36 % dose/g
Biodistribution: Pancreas ([3]; 4 hr): 0.11 ± 0.03 % dose/g
Biodistribution: Skin ([3]; 4 hr): 0.11 ± 0.01 % dose/g
Biodistribution: Sm Intestine ([3]; 4 hr): 0.21 ± 0.29 % dose/g
Biodistribution: Spleen ([3]; 4 hr): 0.39 ± 0.12 % dose/g
Biodistribution: Stomach ([3]; 4 hr): 0.26 ± 0.23 % dose/g
Biodistribution: Blood ([3]; 24 hr): 0.00 ± 0.00 % dose/g
Biodistribution: Bone ([3]; 24 hr): 5.51 ± 0.66 % dose/g
Biodistribution: Heart ([3]; 24 hr): 0.03 ± 0.01 % dose/g
Biodistribution: Kidney ([3]; 24 hr): 4.18 ± 1.74 % dose/g
Biodistribution: Lg Intestine ([3]; 24 hr): 0.49 ± 0.34 % dose/g
Biodistribution: Liver ([3]; 24 hr): 0.14 ± 0.02 % dose/g
Biodistribution: Lung ([3]; 24 hr): 0.10 ± 0.04 % dose/g
Biodistribution: Muscle ([3]; 24 hr): 0.02 ± 0.00 % dose/g
Biodistribution: PC3 tumor ([3]; 24 hr): 0.16 ± 0.02 % dose/g
Biodistribution: PIP PC3 tumor ([3]; 24 hr): 10.75 ± 2.52 % dose/g
Biodistribution: Pancreas ([3]; 24 hr): 0.03 ± 0.00 % dose/g
Biodistribution: Skin ([3]; 24 hr): 0.07 ± 0.02 % dose/g
Biodistribution: Sm Intestine ([3]; 24 hr): 0.30 ± 0.33 % dose/g
Biodistribution: Spleen ([3]; 24 hr): 0.15 ± 0.04 % dose/g
Biodistribution: Stomach ([3]; 24 hr): 0.40 ± 0.56 % dose/g
Bone uptake compared with [177Lu]42 ([3]; mouse, in vivo): consistently higher
PC3 (PSMA negative) tumor uptake ([3]; mouse, in vivo): very low uptake
PIP PC3 (PSMA positive) tumor uptake ([3]; mouse, in vivo): excellent
Tumor specific uptake compared with [177Lu]42 ([3]; mouse, in vivo): higher
Uptake in bone ([3]; mouse, in vivo): high specific uptake in bone
Stability of injected doses [4]: stable
